From patent publication US9884063B2, “Amido-substituted azole compounds” (Bayer Pharma Aktiengesellschaft, priority 2014, dated 2018)

Experiments:
TNKS2 = biological target: T1, TNKS2 (Homo sapiens, UniProt Q9H2K2); test: Modified TNKS2 Assay 3 (BPS kit #80578, biotin-NAD+, 96 well); assay type: biochemical; settings: human TNKS2, BPS kit #80578, 96 well
T1 sequence (Q9H2K2 1-1166): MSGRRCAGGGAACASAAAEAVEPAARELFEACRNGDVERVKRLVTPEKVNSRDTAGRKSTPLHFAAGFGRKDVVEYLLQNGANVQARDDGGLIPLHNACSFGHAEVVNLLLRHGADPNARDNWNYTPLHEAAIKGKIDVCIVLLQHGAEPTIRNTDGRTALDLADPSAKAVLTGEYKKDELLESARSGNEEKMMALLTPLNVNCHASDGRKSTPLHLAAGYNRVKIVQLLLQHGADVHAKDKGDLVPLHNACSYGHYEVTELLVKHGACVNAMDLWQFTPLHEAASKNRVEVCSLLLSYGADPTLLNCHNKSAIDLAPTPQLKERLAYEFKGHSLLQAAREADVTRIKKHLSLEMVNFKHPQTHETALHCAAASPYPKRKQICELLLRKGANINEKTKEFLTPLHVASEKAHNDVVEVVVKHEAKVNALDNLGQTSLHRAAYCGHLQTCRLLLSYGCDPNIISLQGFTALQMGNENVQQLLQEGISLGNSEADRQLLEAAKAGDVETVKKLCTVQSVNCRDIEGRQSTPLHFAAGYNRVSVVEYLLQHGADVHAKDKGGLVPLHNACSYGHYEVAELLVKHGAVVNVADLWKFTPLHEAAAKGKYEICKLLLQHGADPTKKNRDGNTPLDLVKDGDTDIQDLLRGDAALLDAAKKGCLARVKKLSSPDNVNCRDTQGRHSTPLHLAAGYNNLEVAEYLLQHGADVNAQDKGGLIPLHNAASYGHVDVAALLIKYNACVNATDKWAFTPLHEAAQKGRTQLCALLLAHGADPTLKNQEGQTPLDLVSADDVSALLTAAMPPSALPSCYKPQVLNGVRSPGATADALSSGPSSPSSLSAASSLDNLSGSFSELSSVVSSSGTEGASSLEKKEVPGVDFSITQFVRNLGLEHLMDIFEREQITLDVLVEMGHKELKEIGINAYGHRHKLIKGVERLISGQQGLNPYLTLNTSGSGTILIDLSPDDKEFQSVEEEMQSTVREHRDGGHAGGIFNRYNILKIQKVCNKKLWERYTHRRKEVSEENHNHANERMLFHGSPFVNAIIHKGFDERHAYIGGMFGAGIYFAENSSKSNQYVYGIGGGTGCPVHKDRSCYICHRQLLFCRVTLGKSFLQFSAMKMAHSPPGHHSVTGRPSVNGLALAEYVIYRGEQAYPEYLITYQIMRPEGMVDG
Procedure, shortened: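 Commercial kit assay measuring TNKS2-catalysed incorporation of biotin-labelled NAD+ into a protein substrate, detected by streptavidin-HRP chemiluminescence. Run per manufacturer's protocol; IC50 is the concentration halving the normalised signal.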

[1] = test system: wildtype Wnt signaling cascade; test: HEK293 TOP Assay (Super TopFlash luciferase reporter, Wnt-3a stimulated); assay type: cell-based; settings: Homo sapiens, HEK293, 16 h, HEK293 TOP reporter cell line, Wnt-3a at EC50, 16 hours incubation, compound dilution series 50 μM to 15 nM
Procedure, shortened: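 HEK293 cells stably carrying Super TopFlash (TOP) or FOP reporter, stimulated with recombinant human Wnt-3a (2500–5 ng/ml, two-fold steps). Both lines incubated in parallel with compound from 50 μM to 15 nM (3.16-fold) in CAFTY buffer pH 7.4 with 2 mM Ca2+ and 0.01% BSA; selectivity judged TOP vs FOP.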

For `O=C(Nc1ccc(NC(=O)c2[nH]cnc2C(=O)NCCN2CCCCC2)cn1)c1ccc(F)cc1Cl` [Example 110, N^5-{6-[(2-chloro-4-fluorobenzoyl)amino]pyridin-3-yl}-N^4-[2-(piperidin-1-yl)ethyl]-1H-imidazole-4,5-dicarboxamide], the IC50 (TNKS2) was 4 nM and the IC50 [1] was 60 nM.
